Measured values published in patent publication US20230140983A1, “PYRIDAZINE DERIVATIVES FOR MODULATING NUCLEIC ACID SPLICING” (REMIX THERAPEUTICS INC., priority 2020, published 2023).
Structures can show the parent of a compound that is named as a salt. Where two headings read alike, the source gives them in different places.

Tests used:
Assay type in all cases: cell-based
SMN2 = assay: Gene panel canonical junction qPCR assay, SMN2 CJ mRNA; details: Table 9, CJ mRNA decrease, read-out: SMN2 IC50 (decrease in CJ mRNA levels)
Method: (§1) To set up 10 uL RT-qPCR reactions, cell lysates were transferred to 384-well qPCR plates containing the master mix according to the table below. The plates were sealed, gently vortexed, and spun down before the run. The volumes were adjusted accordingly in some instances where the reaction was carried in 20 uL. The table below summarizes the components of the RT-qPCR reactions:
(§2) The RT-qPCR reaction was performed using a QuantStudio (ThermoFisher) under the following fast cycling conditions. All samples and standards were analyzed at least in duplicate. In some instances, bulk room temperature (RT) step of 5-10 minutes was completed for all plates before proceeding with qPCR. The table below summarizes the PCR cycle:
(§3) The data analysis was performed by first determining the ΔCt vs the housekeeper gene. This ΔCt was then normalized against the DMSO control (ΔΔCt) and converted to RQ (relative quantification) using the 2^(−ΔΔCt) equation. The RQ were then converted to a percentage response by arbitrarily setting an assay window of 3.5 ΔCt for HTT-CJ and an assay window of 9 ΔCt for HTT-AJ. […] The percentage response was then fitted to the 4 parametric logistic equation to evaluate the concentration dependence of compound treatment. The increase in AJ mRNA is reported as AC50 (compound concentration having 50% response in AJ increase) while the decrease in CJ mRNA levels is reported as IC50 (compound concentration having 50% response in CJ decrease).
(§4) Additional studies were carried out for a larger panel of genes using the protocol provided above. The junction between flanking upstream and downstream exons was used to design canonical junction qPCR assays. At least one of the forward primer, reverse primer or the CY5-labeled 5′ nuclease probe (with 3′ quencher such as ZEN/Iowa Black FQ) was designed to overlap with the exon junction to capture the CJ mRNA transcript. BLAST was used to confirm the specificity of the probeset and parameters such as melting temperature, GC content, amplicon size, and primer dimer formation are considered during their design. Data for the decrease in CJ mRNA levels for three exemplary genes (HTT, SMN2, and Target C) analyzed in this panel are reported as IC50 (compound concentration having 50% response in CJ decrease).

HTT [1] = assay: Gene panel canonical junction qPCR assay, HTT CJ mRNA; details: Table 9, CJ mRNA decrease, read-out: HTT IC50 (decrease in CJ mRNA levels)
Method: as §1, §2, §3, §4

HTT [2] = assay: Splicing assay (RT-qPCR on cell lysates) monitoring HTT splice variants: AJ and CJ mRNA; details: concentration having 50% response
Method: Example 69: Exemplary Splicing Assay for Monitoring Expression Levels of Splice Variants
as §1, §2, §3

Target C = assay: Gene panel canonical junction qPCR assay, Target C CJ mRNA; details: Table 9, CJ mRNA decrease, read-out: Target C IC50 (decrease in CJ mRNA levels)
Method: as §1, §2, §3, §4

[3] = Table 7, decrease in CJ mRNA, read-out: HTT CJ AC50
[4] = Table 7, increase in AJ mRNA, read-out: HTT AJ AC50
[5] = Table 8, decrease in CJ mRNA, read-out: HTT CJ AC50
[6] = Table 8, increase in AJ mRNA, read-out: HTT AJ AC50

Compound | IC50 (SMN2) [µM] | IC50 (HTT [1]) [µM] | IC50 (Target C) [µM] | AC50 (HTT [2]; [3]) [µM] | AC50 (HTT [2]; [4]) [µM] | AC50 (HTT [2]; [5]) [µM] | AC50 (HTT [2]; [6]) [µM]
c1nc2c(-c3cn[nH]c3)ccc(-c3ccc(N4CC5(CCCNC5)C4)nn3)c2s1 [Compound 187, 7-(6-{2,6-diazaspiro [3.5]nonan-2-yl}pyridazin-3-yl)-4-(1H-pyrazol-4-yl)-1,3-benzothiazole] | 1 to 10 | > 10 | > 10 | > 5 | > 5 | > 10 | > 10
c1nc2c(-c3cn[nH]c3)ccc(-c3ccc(N4CCC5(CC4)CNC5)nn3)c2s1 [Compound 188] | > 10 | > 10 | > 10 | > 5 | > 5 | > 10 | > 10
c1nc2c(-c3cn[nH]c3)ccc(-c3ccc(N4CCCC5(CNC5)C4)nn3)c2s1 [Compound 189] | > 10 | > 10 | > 10 | – | – | > 10 | > 10
c1nc2c(-c3cn[nH]c3)ccc(-c3ccc(N4CCC5(CCNCC5)C4)nn3)c2s1 [Compound 190] | > 10 | > 10 | > 10 | – | – | > 10 | > 10
c1nc2c(-c3cn[nH]c3)ccc(-c3ccc(N4CCC5(CCCNC5)C4)nn3)c2s1 (centres unmarked) [Compound 191] | 1 to 10 | > 10 | > 10 | – | – | > 10 | > 10
c1nc2c(-c3cn[nH]c3)ccc(-c3ccc(N4CCC5(CCNC5)CC4)nn3)c2s1 [Compound 192] | > 10 | > 10 | > 10 | – | – | > 10 | > 10
c1nc2c(-c3cn[nH]c3)ccc(-c3ccc(S[C@@H]4C[C@H]5CC[C@@H](C4)N5)nn3)c2s1 [Compound 200, 7-{6-[(exo)-8-azabicyclo[3.2.1]octan-3-ylsulfanyl]pyridazin-3-yl}-4-(1H-pyrazol-4-yl)-1,3-benzothiazole] | > 10 | > 10 | > 10 | – | – | > 10 | > 10
Cc1ncc(-c2ccc(-c3ccc(N(C)C4CC(C)(C)NC(C)(C)C4)nn3)c3ncsc23)o1 [Compound 201] | 0.1 to 1 | 1 to 10 | 1 to 10 | – | – | 1 to 10 | 1 to 10
c1nc2c(-c3cn[nH]c3)ccc(-c3ccc(N[C@@H]4C[C@H]5CC[C@@H](C4)N5)nn3)c2s1 [Compound 202, (exo-)-N-[6-[4-(1H-pyrazol-4-yl)-1,3-benzothiazol-7-yl]pyridazin-3-yl]-8-azabicyclo[3.2.1]octan-3-amine] | < 0.1 | < 0.1 | 0.1 to 1 | – | – | < 0.1 | < 0.1
CCN(c1ccc(-c2ccc(-c3cn[nH]c3)c3ncsc23)nn1)[C@@H]1C[C@H]2CC[C@@H](C1)N2 [Compound 203, (exo-)-N-ethyl-N-[6-[4-(1H-pyrazol-4-yl)-1,3-benzothiazol-7-yl]pyridazin-3-yl]-8-azabicyclo[3.2.1]octan-3-amine] | < 0.1 | 0.1 to 1 | 0.1 to 1 | – | – | 0.1 to 1 | 0.1 to 1
CN(c1ccc(-c2ccc(-c3cn[nH]c3)c3ncsc23)nn1)[C@H]1C[C@]2(C)CC[C@](C)(C1)N2 [Compound 204, (exo-)-N,1,5-trimethyl-N-[6-[4-(1H-pyrazol-4-yl)-1,3-benzothiazol-7-yl]pyridazin-3-yl]-8-azabicyclo[3.2.1]octan-3-amine] | < 0.1 | < 0.1 | < 0.1 | – | – | < 0.1 | < 0.1
CN(c1ccc(-c2ccc(-c3cn[nH]c3)c3ncsc23)nn1)[C@H]1[C@@H]2CNC[C@@H]21 [Compound 205, (exo-)-N-methyl-N-[6-[4-(1H-pyrazol-4-yl)-1,3-benzothiazol-7-yl]pyridazin-3-yl]-3-azabicyclo[3.1.0]hexan-6-amine] | 1 to 10 | > 10 | > 10 | – | – | > 10 | > 10
c1nc2c(-c3cn[nH]c3)ccc(-c3ccc(O[C@@H]4C[C@H]5CCC[C@@H](C4)N5)nn3)c2s1 [Compound 209] | 0.1 to 1 | > 10 | > 10 | – | – | > 10 | > 10
[2H]C([2H])([2H])N(c1ccc(-c2ccc(-c3cn[nH]c3)c3ncsc23)nn1)[C@@H]1C[C@H]2CC[C@@H](C1)N2 [Compound 210, (exo-)-N-(D3)methyl-N-[6-[4-(1H-pyrazol-4-yl)-1,3-benzothiazol-7-yl]pyridazin-3-yl]-8-azabicyclo [3.2.1]octan-3-amine] | < 0.1 | < 0.1 | < 0.1 | – | – | < 0.1 | < 0.1
CN(c1ccc(-c2ccc(-c3cn[nH]c3)c3ncsc23)nn1)[C@@H]1C[C@H]2CC[C@@H](C1)N2 [Compound 213, (exo)-N-methyl-N-{6-[4-(1H-pyrazol-4-yl)-1,3-benzothiazol-7-yl]pyridazin-3-yl}-8-azabicyclo[3.2.1]octan-3-amine] | < 0.1 | < 0.1 | < 0.1 | – | – | < 0.1 | < 0.1
c1nc2c(-c3cn[nH]c3)ccc(-c3ccc(N[C@@H]4C[C@H]5CCC[C@@H](C4)N5)nn3)c2s1 [Compound 215] | < 0.1 | < 0.1 | < 0.1 | – | – | < 0.1 | < 0.1

Further lines, with some results ahead:

IC50 (SMN2) [µM] | IC50 (HTT [1]) [µM] | IC50 (Target C) [µM] | Compound | AC50 (HTT [2]; [3]) [µM] | AC50 (HTT [2]; [4]) [µM] | AC50 (HTT [2]; [5]) [µM] | AC50 (HTT [2]; [6]) [µM]
> 10 | > 10 | > 10 | c1nc2c(-c3cn[nH]c3)ccc(-c3ccc(N4CCCC5(CCNC5)C4)nn3)c2s1 (centres unmarked) [Compound 193] | – | – | > 10 | > 10
0.1 to 1 | 1 to 10 | > 10 | c1nc2c(-c3cn[nH]c3)ccc(-c3ccc(N4C[C@H]5CNC[C@H]5C4)nn3)c2s1 [Compound 194, 7-{6-[(exo)-hexahydro-1H-pyrrolo[3,4-c]pyrrol-2-yl]pyridazin-3-yl}-4-(1H-pyrazol-4-yl)-1,3-benzothiazole hydrochloride] | – | – | 1 to 10 | > 10
> 10 | > 10 | > 10 | c1nc2c(-c3cn[nH]c3)ccc(-c3ccc(NC4CNC4)nn3)c2s1 [Compound 196] | – | – | > 10 | > 10
1 to 10 | 1 to 10 | > 10 | c1nc2c(-c3cn[nH]c3)ccc(-c3ccc(N4CC5(CCNCC5)C4)nn3)c2s1 [Compound 197] | – | – | 1 to 10 | 1 to 10
0.1 to 1 | > 10 | > 10 | CN1C[C@@H]2CN(c3ccc(-c4ccc(-c5cn[nH]c5)c5ncsc45)nn3)C[C@@H]2C1 [Compound 198, 7-{6-[(exo)-5-methyl-hexahydropyrrolo[3,4-c]pyrrol-2-yl]pyridazin-3-yl}-4-(1H-pyrazol-4-yl)-1,3-benzothiazole hydrochloride] | – | – | > 10 | > 10
< 0.1 | 1 to 10 | > 10 | c1nc2c(-c3cn[nH]c3)ccc(-c3ccc(C4CCNCC4)nn3)c2s1 [Compound 206] | – | – | 1 to 10 | > 10
0.1 to 1 | > 10 | > 10 | c1nc2c(-c3cn[nH]c3)ccc(-c3ccc(NC4CCNCC4)nn3)c2s1 [Compound 214, N-(piperidin-4-yl)-6-[4-(1H-pyrazol-4-yl)-1,3-benzothiazol-7-yl]pyridazin-3-amine] | – | – | > 10 | 1 to 10
